Laboratory results from the supplement of paper PMC10307832.

Columns and labels:
Assay in all cases: relative viability (nuclei count vs DMSO), 5 days (fraction); higher = more cells survive
COR-L 105 = system: COR-L 105
Outline: (§1)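 Relative viability equals treated-well nuclei counts divided by vehicle-well nuclei counts. Counts came from 4× images of lung cancer cell lines grown in 1536-well plates for 5 days after pin-tool dosing on the day after seeding. Dosing used one drug alone or a fixed anchor-drug dose plus five library-drug doses (not always all listed) in √10 steps, and values are medians of duplicate plates.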

NCI-H838 = system: NCI-H838
Outline: as §1

NCI-H2347 = system: NCI-H2347
Outline: as §1

NCI-H1915 = system: NCI-H1915
Outline: as §1

COR-L23 = system: COR-L23
Outline: as §1

NCI-H1437 = system: NCI-H1437
Outline: as §1

NCI-H661 = system: NCI-H661
Outline: as §1

NCI-H520 = system: NCI-H520
Outline: as §1

NCI-H2342 = system: NCI-H2342
Outline: as §1

NCI-H1651 = system: NCI-H1651
Outline: as §1

LCLC-97TM1 = system: LCLC-97TM1
Outline: as §1

PC-3 [JPC-3] = system: PC-3 [JPC-3]
Outline: as §1

NCI-H1993 = system: NCI-H1993
Outline: as §1

NCI-H441 = system: NCI-H441
Outline: as §1

CAL-12T = system: CAL-12T
Outline: as §1

NCI-H2009 = system: NCI-H2009
Outline: as §1

LXF-289 = system: LXF-289
Outline: as §1

A-427 = system: A-427
Outline: as §1

HOP-62 = system: HOP-62
Outline: as §1

NCI-H460 = system: NCI-H460
Outline: as §1

NCI-H522 = system: NCI-H522
Outline: as §1

NCI-H2023 = system: NCI-H2023
Outline: as §1

Work on Oc1nc(-c2ccc(C(F)(F)F)cc2)nc2c1CSCC2 [XAV939] + CC(=O)Nc1cccc(-n2c(=O)n(C3CC3)c(=O)c3c(Nc4ccc(I)cc4F)n(C)c(=O)c(C)c32)c1 [Trametinib] (partner 0.02 µM) yielded a relative viability (COR-L 105; first compound 0.08 µM) of 0.43, a relative viability (COR-L 105; first compound 0.253 µM) of 0.433 and a relative viability (COR-L 105; first compound 0.8 µM) of 0.4. It also gave a relative viability (COR-L 105; first compound 2.53 µM) of 0.414, a relative viability (NCI-H838; first compound 0.08 µM) of 0.595 and a relative viability (NCI-H838; first compound 0.253 µM) of 0.441. It also gave a relative viability (NCI-H838; first compound 0.8 µM) of 0.392, a relative viability (NCI-H838; first compound 2.53 µM) of 0.39 and a relative viability (NCI-H2347; first compound 0.08 µM) of 0.302. For the same compound, the relative viability (NCI-H2347; first compound 0.253 µM) was 0.278, the relative viability (NCI-H2347; first compound 0.8 µM) was 0.308 and the relative viability (NCI-H2347; first compound 2.53 µM) was 0.236. The relative viability (NCI-H1915; first compound 0.08 µM) was 0.359, the relative viability (NCI-H1915; first compound 0.253 µM) was 0.296 and the relative viability (NCI-H1915; first compound 0.8 µM) was 0.276. The relative viability (NCI-H1915; first compound 2.53 µM) was 0.294, the relative viability (COR-L23; first compound 0.08 µM) was 0.651 and the relative viability (COR-L23; first compound 0.253 µM) was 0.597. It also gave a relative viability (COR-L23; first compound 0.8 µM) of 0.543, a relative viability (COR-L23; first compound 2.53 µM) of 0.531 and a relative viability (NCI-H1437; first compound 0.08 µM) of 0.499. It also gave a relative viability (NCI-H1437; first compound 0.253 µM) of 0.407, a relative viability (NCI-H1437; first compound 0.8 µM) of 0.518 and a relative viability (NCI-H1437; first compound 2.53 µM) of 0.29. For the same compound, the relative viability (NCI-H661; first compound 0.08 µM) was 0.617, the relative viability (NCI-H661; first compound 0.253 µM) was 0.538 and the relative viability (NCI-H661; first compound 0.8 µM) was 0.543. It also gave a relative viability (NCI-H661; first compound 2.53 µM) of 0.568, a relative viability (NCI-H520; first compound 0.08 µM) of 0.687 and a relative viability (NCI-H520; first compound 0.8 µM) of 0.501. It also gave a relative viability (NCI-H520; first compound 2.53 µM) of 0.427, a relative viability (NCI-H2342; first compound 0.08 µM) of 0.834 and a relative viability (NCI-H2342; first compound 0.253 µM) of 0.781. The relative viability (NCI-H2342; first compound 0.8 µM) was 0.717, the relative viability (NCI-H2342; first compound 2.53 µM) was 0.446 and the relative viability (NCI-H1651; first compound 0.08 µM) was 0.821. The relative viability (NCI-H1651; first compound 0.253 µM) was 0.724, the relative viability (NCI-H1651; first compound 0.8 µM) was 0.825 and the relative viability (NCI-H1651; first compound 2.53 µM) was 0.816. The relative viability (LCLC-97TM1; first compound 0.08 µM) was 0.213, the relative viability (LCLC-97TM1; first compound 0.253 µM) was 0.199 and the relative viability (LCLC-97TM1; first compound 2.53 µM) was 0.161. It also gave a relative viability (PC-3 [JPC-3]; first compound 0.253 µM) of 0.613, a relative viability (PC-3 [JPC-3]; first compound 0.8 µM) of 0.722 and a relative viability (PC-3 [JPC-3]; first compound 2.53 µM) of 0.677. The relative viability (NCI-H1993; first compound 0.08 µM) was 0.541, the relative viability (NCI-H1993; first compound 0.253 µM) was 0.488 and the relative viability (NCI-H1993; first compound 0.8 µM) was 0.411. It also gave a relative viability (NCI-H1993; first compound 2.53 µM) of 0.449, a relative viability (NCI-H441; first compound 0.08 µM) of 0.513 and a relative viability (NCI-H441; first compound 0.253 µM) of 0.366. The relative viability (NCI-H441; first compound 0.8 µM) was 0.414, the relative viability (NCI-H441; first compound 2.53 µM) was 0.484 and the relative viability (CAL-12T; first compound 0.08 µM) was 0.346. For the same compound, the relative viability (CAL-12T; first compound 0.253 µM) was 0.257, the relative viability (CAL-12T; first compound 0.8 µM) was 0.272 and the relative viability (CAL-12T; first compound 2.53 µM) was 0.223. It also gave a relative viability (NCI-H2009; first compound 0.08 µM) of 0.287, a relative viability (NCI-H2009; first compound 0.253 µM) of 0.281 and a relative viability (NCI-H2009; first compound 0.8 µM) of 0.19. It also gave a relative viability (NCI-H2009; first compound 2.53 µM) of 0.217, a relative viability (LXF-289; first compound 0.08 µM) of 0.665 and a relative viability (LXF-289; first compound 0.253 µM) of 0.632. The relative viability (LXF-289; first compound 0.8 µM) was 0.687, the relative viability (LXF-289; first compound 2.53 µM) was 0.729 and the relative viability (A-427; first compound 0.08 µM) was 0.818. It also gave a relative viability (A-427; first compound 0.253 µM) of 0.737, a relative viability (A-427; first compound 0.8 µM) of 0.781 and a relative viability (A-427; first compound 2.53 µM) of 0.658. It also gave a relative viability (HOP-62; first compound 0.08 µM) of 0.392, a relative viability (HOP-62; first compound 0.253 µM) of 0.329 and a relative viability (HOP-62; first compound 0.8 µM) of 0.411. For the same compound, the relative viability (HOP-62; first compound 2.53 µM) was 0.312, the relative viability (NCI-H460; first compound 0.08 µM) was 0.164 and the relative viability (NCI-H460; first compound 0.253 µM) was 0.0959. For the same compound, the relative viability (NCI-H460; first compound 0.8 µM) was 0.124, the relative viability (NCI-H460; first compound 2.53 µM) was 0.111 and the relative viability (NCI-H522; first compound 0.08 µM) was 0.88. It also gave a relative viability (NCI-H522; first compound 0.253 µM) of 0.713, a relative viability (NCI-H522; first compound 0.8 µM) of 0.888 and a relative viability (NCI-H522; first compound 2.53 µM) of 0.725. It also gave a relative viability (NCI-H2023; first compound 0.08 µM) of 0.625, a relative viability (NCI-H2023; first compound 0.253 µM) of 0.365 and a relative viability (NCI-H2023; first compound 0.8 µM) of 0.473. For the same compound, the relative viability (NCI-H2023; first compound 2.53 µM) was 0.407.
